Results taken from patent publication US11548849B2, “Alcohol derivatives as KV7 potassium channel openers” (H. Lundbeck A/S, priority 2019, dated 2023).

Target: T1, hKv7.2/hKv7.3 (Homo sapiens, UniProt O43525+O43526)
T1 construct: P2A self-cleaving peptide (between Kv7.3 and Kv7.2; the remnant would stay on the upstream protein) (C); expressed in transfected cells
Assay: Thallium influx assay for potassium channel activation
Format: cell-based
Details: HEK-hKv7.2/hKv7.3 cells; FLIPR Potassium Assay kit; AUC readout normalized to a reference compound
Procedure: A synthesized cDNA fragment encoding human Kv7.3 and human Kv7.2 separated by a P2A sequence was inserted into the pcDNA5/FRT/TO vector using the BamHI and XhoI restriction sites. The construct was then transfected into HEK Flp-In 293 cells using Lipofectamine2000. The transfected cells were grown for 48 hours in DMEM containing 10% (v/v) FBS and 1% PenStrep and subsequently maintained under selection in DMEM containing 10% (v/v) FBS, 1% PenStrep and 200 ug/mL Hygromycin B at 37° C. in a humidified atmosphere of 5% CO2.
The thallium influx assay for potassium channel activation was performed analogously to a published procedure (C. D. Weaver, et al., J Biomol Screen 2004, 9, 671-677) using the FLIPR Potassium Assay kit (Molecular Devices). HEK-hKv7.2/hKv7.3 cells were plated onto 96-well, black-walled, clear-bottomed culture plates (Corning, Acton, Mass., USA) at a density of 80,000 cells/well (100 μl/well) if the cells were assayed the following day, or 40,000 cells/well (100 μl/well) if the cells were assayed two days after seeding.
On the assay day, the medium was removed after which 50 uL/well of test compound diluted to 2× final concentration in HBSS containing 20 mM HEPES, and 50 uL/well of 2× dye load buffer were added. The cells were then incubated for 60 min at room temperature in the dark. Chloride-free stimulation buffer containing Tl^+ and K^+ at 5× final concentration (5× concentration: 5 mM in both cases) and test compound at 1× final concentration, were prepared during the incubation. The cells were then assayed in a FDSS7000EX Functional Drug Screening System (Hamamatsu). Following 60 sec of baseline fluorescence signal reading at 0.1 Hz, and 10 sec at 1 Hz, 25 uL/well of stimulation buffer were added and the fluorescence continuously measured for 50 sec at 1 Hz followed, by 4 min at 0.1 Hz. Compound effect was quantified using AUC as readout and normalized to a reference compound, which was included on each plate.

| SMILES | EC50 |
| --- | --- |
| CC(C)(C)[C@@H](O)CC(=O)N[C@@H](CC(F)F)c1cccc(OC(F)F)c1 [Example 22, (S)—N—((S)-1-(3-(difluoromethoxy)phenyl)-3,3-difluoropropyl)-3-hydroxy-4,4-dimethylpentanamide] | 4500 nM |
| CC(C)(C)[C@@H](O)CC(=O)N[C@@H](COC(F)(F)F)c1cccc(OC(F)(F)F)c1 [Example 19, (S)—N—((R)-1-(3-(trifluoromethoxy)phenyl)-2-(trifluoromethoxy)ethyl)-3-hydroxy-4,4-dimethylpentanamide] | 940 nM |
| CC(C)CC(C)(O)CC(=O)N[C@@H](COC(F)F)c1cccc(OC(F)F)c1 (single isomer, unassigned) [Example 13b] | 360 nM |
| C[C@H](NC(=O)C[C@H](O)C(C)(C)C)c1cccc(OC(F)F)c1 [Example 23, (S)—N—((S)-1-(3-(difluoromethoxy)phenyl)ethyl)-3-hydroxy-4,4-dimethylpentanamide] | 1500 nM |
| CC(O)(CC(=O)N[C@@H](COC(F)F)c1cccc(OC(F)(F)F)c1)C1CC1 (single isomer, unassigned) [Example 11b] | 1700 nM |
| CC(C)(C)[C@@H](O)CC(=O)N[C@@H](COC1CC1)c1cccc(OC(F)F)c1 [Example 17, (S)—N—((R)-2-cyclopropoxy-1-(3-(difluoromethoxy)phenyl)ethyl)-3-hydroxy-4,4-dimethylpentanamide] | 1500 nM |
| CC(C)C(C)(O)CC(=O)N[C@@H](COC(F)F)c1cccc(OC(F)F)c1 (single isomer, unassigned) [Example 14b] | 1300 nM |
| O=C(CC(O)C1CCCC1)N[C@@H](COC(F)F)c1cccc(OC(F)F)c1 (single isomer, unassigned) [Example 16a] | 2600 nM |
| O=C(CC(O)C1CC(F)(F)C1)N[C@@H](COC(F)F)c1cccc(OC(F)(F)F)c1 (single isomer, unassigned) [Example 6a] | 2500 nM |
| O=C(CC(O)C1CC(F)(F)C1)N[C@@H](COC(F)F)c1cccc(OC(F)F)c1 (single isomer, unassigned) [Example 5b] | 4500 nM |
| O=C(CC(O)C1(C(F)(F)F)CC1)N[C@@H](COC(F)F)c1cccc(OC(F)(F)F)c1 (single isomer, unassigned) [Example 4b] | 2900 nM |
| CCC[C@H](NC(=O)CC1(O)CC(F)(F)C1)c1cccc(OC(F)F)c1 [Example 31, (S)-2-(3,3-difluoro-1-hydroxycyclobutyl)-N-(1-(3-(difluoromethoxy)phenyl)butyl)acetamide] | 2600 nM |
| O=C(CC1(O)CC(F)(F)C1)N[C@@H](CC(F)F)c1cccc(OC(F)(F)F)c1 [Example 35, (S)—N-(3,3-difluoro-1-(3-(trifluoromethoxy)phenyl)propyl)-2-(3,3-difluoro-1-hydroxycyclobutyl)acetamide] | 3500 nM |
| O=C(CC(O)C1(C(F)(F)F)CC1)N[C@@H](COC(F)F)c1cccc(OC(F)(F)F)c1 (single isomer, unassigned) [Example 4a] | 1700 nM |
| COC[C@H](NC(=O)C[C@](C)(O)C1(F)CC1)c1cccc(OC(F)(F)F)c1 (single isomer, unassigned) [Example 36a] | 2700 nM |
| O=C(CC(O)C1CCCC1)N[C@@H](COC(F)F)c1cccc(OC(F)F)c1 (single isomer, unassigned) [Example 16b] | 430 nM |
| O=C(CC1(O)CC(F)(F)C1)N[C@@H](COC(F)F)c1cccc(OC(F)(F)F)c1 [Example 27, (R)-2-(3,3-difluoro-1-hydroxycyclobutyl)-N-(2-(difluoromethoxy)-1-(3-(trifluoromethoxy)phenyl)ethyl)acetamide] | 2300 nM |
| CC(C)(C)[C@@H](O)CC(=O)N[C@@H](CC#N)c1cccc(OC(F)(F)F)c1 [Example 24, (S)—N—((S)-2-cyano-1-(3-(trifluoromethoxy)phenyl)ethyl)-3-hydroxy-4,4-dimethylpentanamide] | 2400 nM |
| O=C(CC(O)C1(C(F)(F)F)CC1)N[C@@H](COC(F)F)c1cccc(OC(F)F)c1 (single isomer, unassigned) [Example 3b] | 2400 nM |

| SMILES | EC50 |
| --- | --- |
| CC(O)(CC(=O)N[C@@H](COC(F)F)c1cccc(OC(F)F)c1)C1(F)CC1 (single isomer, unassigned) [Example 9b] | 9200 nM |
| CC(O)(CC(=O)N[C@@H](COC(F)F)c1cccc(OC(F)F)c1)CC(F)(F)F (single isomer, unassigned) [Example 12a] | 1300 nM |
| N#CC[C@H](NC(=O)CC1(O)CC(F)(F)C1)c1cccc(OC(F)(F)F)c1 [Example 34, (S)—N-(2-cyano-1-(3-(trifluoromethoxy)phenyl)ethyl)-2-(3,3-difluoro-1-hydroxycyclobutyl)acetamide] | 2500 nM |
| CCOC[C@H](NC(=O)CC(O)C(C)(C)C)c1cccc(OC(F)(F)F)c1 (single isomer, unassigned) [Example 2b] | 1800 nM |
| CC(C)CC(C)(O)CC(=O)N[C@@H](COC(F)F)c1cccc(OC(F)F)c1 (single isomer, unassigned) [Example 13a] | 960 nM |
| CC(O)(CC(=O)N[C@@H](COC(F)F)c1cccc(OC(F)F)c1)C1(F)CC1 (single isomer, unassigned) [Example 9a] | 1500 nM |
| O=C(CC1(O)CC(F)(F)C1)N[C@@H](COC(F)F)c1cccc(OC(F)F)c1 [Example 26, (R)-2-(3,3-difluoro-1-hydroxycyclobutyl)-N-(2-(difluoromethoxy)-1-(3-(difluoromethoxy)phenyl)ethyl)acetamide] | 960 nM |
| O=C(CC(O)C1(C(F)(F)F)CC1)N[C@@H](COC(F)F)c1cccc(OC(F)F)c1 (single isomer, unassigned) [Example 3a] | 2800 nM |
| CC(C)(C)[C@@H](O)CC(=O)N[C@@H](COC(F)(F)F)c1cccc(OC(F)F)c1 [Example 18, (S)—N—((R)-1-(3-(difluoromethoxy)phenyl)-2-(trifluoromethoxy)ethyl)-3-hydroxy-4,4-dimethylpentanamide] | 950 nM |
| CC(C)(C)C(O)CC(=O)N[C@@H](COC(F)F)c1cccc(OC(F)F)c1 (single isomer, unassigned) [Example 1a] | 7600 nM |
| O=C(CC(O)C1CC(F)(F)C1)N[C@@H](COC(F)F)c1cccc(OC(F)F)c1 (single isomer, unassigned) [Example 5a] | 1200 nM |
| CC(C)(C)C(O)CC(=O)N[C@@H](COC(F)F)c1cccc(OC(F)F)c1 (single isomer, unassigned) [Example 1b] | 420 nM |
| CCC[C@H](NC(=O)CC(O)C1CC(F)(F)C1)c1cccc(OC(F)F)c1 (single isomer, unassigned) [Example 7a] | 4000 nM |
| CC(O)(CC(=O)N[C@@H](COC(F)F)c1cccc(OC(F)(F)F)c1)C1(F)CC1 (single isomer, unassigned) [Example 10a] | 660 nM |
| CCOC[C@H](NC(=O)CC(O)C(C)(C)C)c1cccc(OC(F)(F)F)c1 (single isomer, unassigned) [Example 2a] | 10000 nM |
| CC(C)(C)[C@@H](O)CC(=O)N[C@@H](CCC#N)c1cccc(OC(F)(F)F)c1 [Example 25, (S)—N—((S)-3-cyano-1-(3-(trifluoromethoxy)phenyl)propyl)-3-hydroxy-4,4-dimethylpentanamide] | 1900 nM |
| CCC[C@H](NC(=O)CC(O)C1CC(F)(F)C1)c1cccc(OC(F)F)c1 (single isomer, unassigned) [Example 7b] | 25000 nM |
| CCC1(C(O)CC(=O)N[C@@H](COC(F)F)c2cccc(OC(F)F)c2)CC1 (single isomer, unassigned) [Example 8a] | 4800 nM |
